Reference: US20080207766A1, “METHODS AND COMPOSITIONS FOR TREATING AT LEAST ONE UPPER GASTROINTESTINAL SYMPTOM” (AGI Therapeutics Research Ltd., priority 2007, published 2008)
Counter-ions that a name gives are not always drawn.

Key:
[1] = cited from earlier work
[2] = Pharmacokinetics of oral conventional formulation in adults (Young et al.); type: in vivo, human
Procedure: Bear et al., Am. J. Physiol., 186, 180-86 (1956). […] Young et al., Clinical Therapeutics, 23(4) (2001). […] The typical dose used for treating hypertensive subjects is about 25 mg/day, and is dosed using conventional formulations.

[3] = system: patients with functional diarrhea; test: Clinical study, randomized double-blind placebo-controlled forced dose escalation, 12 weeks; type: in vivo, human
Source text: While functional diarrhea is a condition dominated by altered lower bowel function associated with chronic diarrhea, it is also associated with upper gastrointestinal related symptoms such as nausea. For instance, patients suffering from similar lower bowel functional conditions such as IBS ([…]) have a reported incidence of nausea of 32%-other conditions also have relatively high baseline incidences of nausea, i.e., functional dyspepsia 39%, oesophagitis 17%, duodenal ulcer 34%, gastric ulcer 39%, gallstone disease 28%, alcohol related dyspepsia 37%, and gastric cancer 48%. […], ABC of the Upper Gastrointestinal Tract Anorexia, Nausea, Vomiting and Pain, 323 BMJ (8 Dec. 2001). […] Eighty-two patients (both male and female) meeting ROME II criteria (modified) for Functional Diarrhea were randomized in the study. Using an intent-to-treat analysis and the entire 12 weeks of dose-escalation therapy, the incidence of nausea in the placebo group was 20%, indicating a relatively high baseline of nausea for that condition.

[4] = 2.5 mg dose, conventional formulation, adults
[5] = 7.5 mg dose, conventional formulation, adults
[6] = expected from Young et al. data, conventional formulation

Row | SMILES | maximum plasma concentration (Cmax) [1, 4] | time to achieve the highest plasma concentration (Tmax) [1, 4] | Cmax [1, 5] | Tmax [1, 5] | absorption from the gastrointestinal tract ([1]; dosed orally, conventional formulations (Bear et al.)) | expected peak plasma concentration ([2]; about 25 mg/day dose for hypertensive subjects, conventional formulations) | 24 hour plasma concentration level as share of peak plasma concentration [2, 6] | time for which about 50% of the peak plasma concentration is maintained [2, 6] | changes in blood pressure ([3]; FIGS. 1 and 2, over the course of the study) | incidence of nausea ([3]; intent-to-treat, entire 12 weeks, once daily 2 then 4 then 6 mg/day, placebo 20%)
1 | CNC1(C)C2CCC(C2)C1(C)C (stereo not shown) [mecamylamine hydrochloride, N-2,3,3-tetramethylbicyclo[2.2.1]heptan-2-amine hydrochloride] | about 7.89 ng/mL | 3.11 h | 23.68 ng/mL | 3.04 h | nearly completely and rapidly absorbed | – | – | – | – | –
2 | CNC1(C)C2CCC(C2)C1(C)C (racemic) [mecamylamine] | – | – | – | – | – | about 78.9 ng/mL | less than 25% | about 14 hours | no clinically significant changes | 9%
